# Experimental data: US20230106880A1, “INHIBITORS OF HUMAN IMMUNODEFICIENCY VIRUS REPLICATION” (VIIV HEALTHCARE UK (NO.5) LIMITED, priority 2020, published 2023)
# Tests used:
# [1] = Compound cytotoxicity, XTT-based colorimetric assay in uninfected MT2 cells; format: cell-based; details: human, day 4, XTT assay
# Method: Compound cytotoxicity and the corresponding CC50 values were determined using the same protocol as described in the antiviral assay except that uninfected cells were used. Cytotoxicity was assessed on day 4 in uninfected MT2 cells by using an XTT (2,3-bis[2-Methoxy-4-nitro-5-sulfophenyl]-2H-tetrazolium-5-carboxyanilide inner salt)-based colorimetric assay (Sigma-Aldrich, St Louis, Mo.).
# [2] = system: recombinant NL4-3 virus (Renilla luciferase) in MT-2 cells; test: HIV cell culture assay (antiviral, luciferase readout in infected MT-2 cells); format: cell-based; details: NL43
# Method: HIV cell culture assay—MT-2 cells, 293T cells and the proviral DNA clone of NL4-3 virus were obtained from the NIH AIDS Research and Reference Reagent Program. MT-2 cells were propagated in RPMI 1640 media supplemented with 10% heat inactivated fetal bovine serum (FBS), […]. The 293T cells were propagated in DMEM media supplemented with 10% heat inactivated FBS, […]. A recombinant NL4-3 proviral clone, in which a section of the nef gene was replaced with the Renilla luciferase gene, was used to make the reference virus used in these studies. The recombinant virus was prepared through transfection of the recombinant NL4-3 proviral clone into 293T cells using Transit-293 Transfection Reagent from Mirus Bio LLC (Madison, Wis.). Supernatent was harvested after 2-3 days and the amount of virus present was titered in MT-2 cells using luciferase enzyme activity as a marker by measuring luciferase enzyme activity. Luciferase was quantitated using the EnduRen Live Cell Substrate from Promega (Madison, Wis.). Antiviral activities of compounds toward the recombinant virus were quantified by measuring luciferase activity in MT-2 cells infected for 4-5 days with the recombinant virus in the presence of serial dilutions of the compound.
# The 50% effective concentration (EC50) was calculated by using the exponential form of the median effect equation where (Fa)=1/[1+(ED50/drug conc.)m] (Johnson V A, Byington R T. Infectivity Assay. In Techniques in HIV Research. ed. Aldovini A, Walker B D. 71-76. New York: Stockton Press. 1990). The 50% inhibitory concentration (EC50) was calculated by using the exponential form of the median effect equation where percent inhibition=1/[1+(EC50/drug concentration)m], where m is a parameter that reflects the slope of the concentration-response curve.
SMILES,CC50 at 4 day [1] [pM],EC50 [2] [pM]
"Cn1nc(NS(C)(=O)=O)c2c(Cl)ccc(-n3c([C@H](Cc4cc(F)cc(F)c4)NC(=O)Cn4nc(C5CC5)c5c4C(F)(F)[C@@H]4C[C@H]54)nc4nc(OCCC(C)(F)F)ccc4c3=O)c21 (atropisomer, axis not shown; (P)) [Example 1, N—((S)-1-((3P)-3-(4-chloro-1-methyl-3-(methylsulfonamido)-1H-indazol-7-yl)-7-(3,3-difluorobutoxy)-4-oxo-3,4-dihydropyrido[2,3-d]pyrimidin-2-yl)-2-(3,5-difluorophenyl)ethyl)-2-((3bS,4aR)-3-cyclopropyl-5,5-difluoro-3b,4,4a,5-tetrahydro-1H-cyclopropa[3,4]cyclopenta[1,2-c]pyrazol-1-yl)acetamide]",> 100000,27
"Cn1nc(NS(C)(=O)=O)c2c(Cl)ccc(-n3c([C@H](Cc4cc(F)cc(F)c4)NC(=O)Cn4nc(C5CC5)c5c4C(F)(F)[C@H]4C[C@@H]54)nc4nc(OCCC(C)(F)F)ccc4c3=O)c21 (atropisomer, axis not shown; (P)) [Example 2, N—((S)-1-((3P)-3-(4-chloro-1-methyl-3-(methylsulfonamido)-1H-indazol-7-yl)-7-(3,3-difluorobutoxy)-4-oxo-3,4-dihydropyrido[2,3-d]pyrimidin-2-yl)-2-(3,5-difluorophenyl)ethyl)-2-((3bR,4aS)-3-cyclopropyl-5,5-difluoro-3b,4,4a,5-tetrahydro-1H-cyclopropa[3,4]cyclopenta[1,2-c]pyrazol-1-yl)acetamide]",> 100000,50
"Cn1nc(NS(C)(=O)=O)c2c(Cl)ccc(-n3c([C@H](Cc4cc(F)cc(F)c4)NC(=O)Cn4nc(C5CC5)c5c4C(F)(F)[C@@H]4C[C@H]54)nc4nc(OCCC(F)(F)F)ccc4c3=O)c21 (atropisomer, axis not shown; (P)) [Example 3, N—((S)-1-((3P)-3-(4-chloro-1-methyl-3-(methylsulfonamido)-1H-indazol-7-yl)-4-oxo-7-(3,3,3-trifluoropropoxy)-3,4-dihydropyrido[2,3-d]pyrimidin-2-yl)-2-(3,5-difluorophenyl)ethyl)-2-((3bS,4aR)-3-cyclopropyl-5,5-difluoro-3b,4,4a,5-tetrahydro-1H-cyclopropa[3,4]cyclopenta[1,2-c]pyrazol-1-yl)acetamide]",> 100000,14
"Cn1nc(NS(C)(=O)=O)c2c(Cl)ccc(-n3c([C@H](Cc4cc(F)cc(F)c4)NC(=O)Cn4nc(C5CC5)c5c4C(F)(F)[C@H]4C[C@@H]54)nc4nc(OCCC(F)(F)F)ccc4c3=O)c21 (atropisomer, axis not shown; (P)) [Example 4, N—((S)-1-((3P)-3-(4-chloro-1-methyl-3-(methylsulfonamido)-1H-indazol-7-yl)-4-oxo-7-(3,3,3-trifluoropropoxy)-3,4-dihydropyrido[2,3-d]pyrimidin-2-yl)-2-(3,5-difluorophenyl)ethyl)-2-((3bR,4aS)-3-cyclopropyl-5,5-difluoro-3b,4,4a,5-tetrahydro-1H-cyclopropa[3,4]cyclopenta[1,2-c]pyrazol-1-yl)acetamide]",> 100000,79
